These results are taken from PubChem BioAssay (NCI).

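Protocol summary: plate cells (96-well), add compound at 5 concentrations, incubate 48 h, interpolate endpoints linearly. Definition used: TGI = concentration required for complete inhibition of growth.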

Test systems include HT29 colon; SN12C renal; ACHN renal; OVCAR-3 ovarian; UACC-257 melanoma; SNB-19 CNS; LOX IMVI melanoma; M14 melanoma; SK-MEL-28 melanoma; CAKI-1 renal.
Experiment in all cases: DTP human tumour cell line panel, 48 h

Take `CCOC(=O)c1sc2nc(SC)nc3c2c1N=CN3c1ccc(Br)cc1`: the TGI with HT29 colon, in the test with SN12C renal, in the test on ACHN renal, in the test with OVCAR-3 ovarian, in the test on UACC-257 melanoma and in the test on SNB-19 CNS was greater than 100 µM throughout. Also, the TGI in the test with LOX IMVI melanoma, with M14 melanoma, with SK-MEL-28 melanoma and with CAKI-1 renal was greater than 100 µM in each case.
On to `CCOC(=O)CCC(NC(=O)c1ccc(OCc2nc3cc(C(F)(F)F)ccc3nc2-c2ccccc2)cc1)C(=O)OCC` (stereo not given), for which the TGI with HT29 colon, with SN12C renal, in the test with ACHN renal, in the test on OVCAR-3 ovarian, in the test on UACC-257 melanoma and in the test with SNB-19 CNS was greater than 100 µM throughout. The TGI in the test with LOX IMVI melanoma, in the test on M14 melanoma, with SK-MEL-28 melanoma and with CAKI-1 renal was greater than 100 µM throughout.
With `N#C/C(=C\NC(=S)Nc1ccc(S(=O)(=O)Nc2ccccn2)cc1)C(N)=O`, the TGI in the test with HT29 colon, in the test on SN12C renal, with ACHN renal, in the test on OVCAR-3 ovarian, in the test on UACC-257 melanoma and in the test on SNB-19 CNS was greater than 100 µM throughout. The TGI in the test with LOX IMVI melanoma, in the test with M14 melanoma, in the test on SK-MEL-28 melanoma and in the test on CAKI-1 renal was greater than 100 µM throughout.
On to `CC(C)(C)OC(=O)NC(C)(C)C(=O)NCCC(=O)O`, for which the TGI in the test with HT29 colon, in the test with SN12C renal, with ACHN renal, with OVCAR-3 ovarian, in the test on UACC-257 melanoma and in the test on SNB-19 CNS was greater than 100 µM throughout. For the same molecule, the TGI in the test with LOX IMVI melanoma, in the test with M14 melanoma, in the test on SK-MEL-28 melanoma and in the test on CAKI-1 renal was greater than 100 µM throughout.
Turning to `CC[C@@H]1CC[C@@H]2[C@H](CC[C@]3(C)[C@@H](O)CC[C@@H]23)[C@H]1C(=O)O`, the TGI with HT29 colon, with SN12C renal, in the test on ACHN renal, in the test with OVCAR-3 ovarian, with UACC-257 melanoma and in the test on SNB-19 CNS was greater than 100 µM throughout. Also, the TGI in the test with LOX IMVI melanoma, in the test on M14 melanoma, in the test on SK-MEL-28 melanoma and in the test on CAKI-1 renal was greater than 100 µM throughout.
Take `Cc1cc(-c2nc3ccccc3s2)ccc1NS(=O)(=O)O`: the TGI with HT29 colon, with SN12C renal, with ACHN renal, in the test on OVCAR-3 ovarian, in the test with UACC-257 melanoma and in the test on SNB-19 CNS was greater than 100 µM in each case. Further, the TGI (in general, the concentration giving total growth inhibition) in the test on LOX IMVI melanoma is greater than 51.2 µM; in the test on M14 melanoma, greater than 100 µM; in the test with SK-MEL-28 melanoma, greater than 100 µM; in the test on CAKI-1 renal, greater than 18.3 µM.
In the case of `Cc1sc2nc3n(c(=O)c2c1C)N=CN(c1ccccc1)C3`, the TGI in the test with HT29 colon, in the test with SN12C renal, in the test with ACHN renal, in the test with OVCAR-3 ovarian, with UACC-257 melanoma and in the test on SNB-19 CNS was greater than 100 µM each time. Also, the TGI with LOX IMVI melanoma, in the test on M14 melanoma, in the test with SK-MEL-28 melanoma and in the test with CAKI-1 renal was greater than 100 µM in each case.
Regarding `OCC1CCCC(n2cnc3c(=S)nc[nH]c32)O1` (stereo not given), the TGI in the test with HT29 colon, with SN12C renal, in the test on ACHN renal, in the test with OVCAR-3 ovarian, in the test with UACC-257 melanoma and in the test with SNB-19 CNS was greater than 100 µM each time. Also, the TGI in the test on LOX IMVI melanoma, with M14 melanoma, with SK-MEL-28 melanoma and in the test on CAKI-1 renal was greater than 100 µM throughout.
In the case of `O=c1c2ccccc2[nH]c(=S)n1-c1ccc(N=Nc2cccc3c(O)cccc23)cc1`, the TGI in the test on HT29 colon, in the test with SN12C renal, in the test on ACHN renal, with OVCAR-3 ovarian, in the test with UACC-257 melanoma and in the test with SNB-19 CNS was greater than 100 µM each time. In addition, the TGI with LOX IMVI melanoma, with M14 melanoma, with SK-MEL-28 melanoma and in the test with CAKI-1 renal was greater than 100 µM throughout.
Regarding `c1cc2nnc1SCCSCCSc1ccc(nn1)SCCSCCS2`, the TGI in the test on HT29 colon, with SN12C renal, in the test on ACHN renal, in the test on OVCAR-3 ovarian, in the test on UACC-257 melanoma and in the test on SNB-19 CNS was greater than 100 µM in each case. For the same molecule, the TGI in the test on LOX IMVI melanoma, in the test with M14 melanoma, with SK-MEL-28 melanoma and with CAKI-1 renal was greater than 100 µM in each case.
Take `C[N+](C)(C)CC(=O)N/N=c1\cc(C(=O)Nc2ccc(N=O)cc2C#N)oc2cc(O)ccc12`: the concentration for total growth inhibition (TGI) in the test with HT29 colon, with SN12C renal, with ACHN renal, with OVCAR-3 ovarian, with UACC-257 melanoma and in the test with SNB-19 CNS was greater than 100 µM in each case. Further, the TGI in the test on LOX IMVI melanoma, in the test with M14 melanoma, with SK-MEL-28 melanoma and with CAKI-1 renal was greater than 100 µM each time.
Turning to `CCCCc1c(O)nc(Nc2nc3ccccc3[nH]2)[nH]c1=O`, the total growth inhibition concentration (TGI) in the test on HT29 colon, with SN12C renal, with ACHN renal, in the test on OVCAR-3 ovarian, with UACC-257 melanoma and in the test on SNB-19 CNS was greater than 100 µM each time. For the same molecule, the TGI in the test on LOX IMVI melanoma, in the test with M14 melanoma, in the test with SK-MEL-28 melanoma and in the test with CAKI-1 renal was greater than 100 µM each time.
On to `Cc1cccc(N2C(=O)C3ON(C(C(N)=O)c4ccccc4)C(c4c5ccccc5c(Cl)c5ccccc45)C3C2=O)c1C` (stereo not given), for which the TGI in the test with HT29 colon came to 14.9 µM; with SN12C renal it was 15.6 µM; in the test with ACHN renal it was 19.7 µM; with OVCAR-3 ovarian, 17.5 µM; with UACC-257 melanoma it was 18.1 µM; with SNB-19 CNS it was 18.4 µM. The total growth inhibition concentration (TGI) came to 16.5 µM in the test with LOX IMVI melanoma, 16.1 µM in the test on M14 melanoma, 41.7 µM in the test with SK-MEL-28 melanoma and 27.3 µM in the test on CAKI-1 renal.
